Measured values from US20230085307A1, “PYRIDAZINONE COMPOUND AND HERBICIDE” (NISSAN CHEMICAL CORPORATION, priority 2019, published 2023).

tested on: rice flat sedge; assay: Test Example 3: herbicidal effect by foliage application, Wagner pot (Table 18, symbol E); assay type: in vivo, rice flat sedge (Cyperus iria); settings: 320 g/ha
Method in brief: (§1)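 Plants were sown in alluvial soil held under 0.1–0.5 cm standing water and grown 14 days in a greenhouse at 25–30 °C. An emulsifiable formulation, water-diluted to the set dose, was then sprayed onto the foliage, and effects were scored three weeks later using previously defined criteria.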

| SMILES | herbicidal effect on E (rice flat sedge), rating 0-5 |
| --- | --- |
| C=Cc1ccc(-c2sc3ccccc3c2-c2c(O)c(C)nn(C)c2=O)cc1 [1-127] | 5 (Herbicidal rate of 90% or more (almost completely withered)) |

tested on: green foxtail; assay: Test Example 5: herbicidal effect by foliage application, plastic box (Table 20, symbol G); assay type: in vivo, green foxtail (Setaria viridis); settings: foliage application, AAH 320 g/ha, three weeks after application
Method in brief: (§2)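 Plants were sown into sterilized diluvial soil under about 1.5 cm cover and kept in a greenhouse at 25° C. to 30° C. Fourteen days on, foliage received an even spray of the diluted emulsion. Herbicidal or crop effect was judged three weeks afterwards.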

| SMILES | G: green foxtail, herbicidal effect |
| --- | --- |
| C=Cc1ccc(-c2sc3ccccc3c2-c2c(O)c(C)nn(C)c2=O)cc1 [1-127] | 4 (Herbicidal rate of 70% or more and less than 90%) |

tested on: blackgrass; assay: Test Example 5: herbicidal effect by foliage application, plastic box (Table 20, symbol J); assay type: in vivo, blackgrass (Alopecurus myosuroides); settings: foliage application, AAH 320 g/ha, three weeks after application
Method in brief: as §2

| SMILES | J: blackgrass, herbicidal effect |
| --- | --- |
| C=Cc1ccc(-c2sc3ccccc3c2-c2c(O)c(C)nn(C)c2=O)cc1 [1-127] | 1 (Herbicidal rate of 5% or more and less than 20%) |

tested on: barnyard grass; assay: Test Example 4: herbicidal effect by soil treatment (Table 19, symbol H); assay type: in vivo, barnyard grass (Echinochloa crus-galli); settings: AAH 320 g/ha
Method in brief: (§3)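 In this soil treatment, the formulated compound reached the seeds only through the soil: seeds were buried about 1.5 cm deep in sterilized diluvial soil, then the diluted emulsion was sprayed over the surface. After three weeks at 25° C. to 30° C. in a greenhouse, effects were graded on criteria from an earlier test.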

| SMILES | H: barnyard grass, herbicidal effect rating |
| --- | --- |
| C=Cc1ccc(-c2sc3ccccc3c2-c2c(O)c(C)nn(C)c2=O)cc1 [1-127] | 0 (Herbicidal rate of 5% or less (almost no effect)) |

tested on: barnyard grass; assay: Test Example 3: herbicidal effect by foliage application, Wagner pot (Table 18, symbol H); assay type: in vivo, barnyard grass (Echinochloa crus-galli); settings: 320 g/ha
Method in brief: as §1

| SMILES | herbicidal effect on H (barnyard grass), rating 0-5 |
| --- | --- |
| C=Cc1ccc(-c2sc3ccccc3c2-c2c(O)c(C)nn(C)c2=O)cc1 [1-127] | 0 (Herbicidal rate of 5% or less (almost no effect)) |

tested on: lambsquarters; assay: Test Example 5: herbicidal effect by foliage application, plastic box (Table 20, symbol O); assay type: in vivo, lambsquarters (Chenopodium album); settings: foliage application, AAH 320 g/ha, three weeks after application
Method in brief: as §2

| SMILES | O: lambsquarters, herbicidal effect |
| --- | --- |
| C=Cc1ccc(-c2sc3ccccc3c2-c2c(O)c(C)nn(C)c2=O)cc1 [1-127] | 5 (Herbicidal rate of 90% or more (almost completely withered)) |

tested on: redroot pigweed; assay: Test Example 4: herbicidal effect by soil treatment (Table 19, symbol N); assay type: in vivo, redroot pigweed (Amaranthus retroflexus); settings: AAH 320 g/ha
Method in brief: as §3

| SMILES | N: redroot pigweed, herbicidal effect rating |
| --- | --- |
| C=Cc1ccc(-c2sc3ccccc3c2-c2c(O)c(C)nn(C)c2=O)cc1 [1-127] | 5 (Herbicidal rate of 90% or more (almost completely withered)) |

tested on: windgrass; assay: Test Example 4: herbicidal effect by soil treatment (Table 19, symbol L); assay type: in vivo, windgrass (Apera spica-venti); settings: AAH 320 g/ha
Method in brief: as §3

| SMILES | L: windgrass, herbicidal effect rating |
| --- | --- |
| C=Cc1ccc(-c2sc3ccccc3c2-c2c(O)c(C)nn(C)c2=O)cc1 [1-127] | 0 (Herbicidal rate of 5% or less (almost no effect)) |

tested on: green foxtail; assay: Test Example 4: herbicidal effect by soil treatment (Table 19, symbol G); assay type: in vivo, green foxtail (Setaria viridis); settings: AAH 320 g/ha
Method in brief: as §3

| SMILES | G: green foxtail, herbicidal effect rating |
| --- | --- |
| C=Cc1ccc(-c2sc3ccccc3c2-c2c(O)c(C)nn(C)c2=O)cc1 [1-127] | 0 (Herbicidal rate of 5% or less (almost no effect)) |

tested on: chickweed; assay: Test Example 4: herbicidal effect by soil treatment (Table 19, symbol P); assay type: in vivo, common chickweed (Stellaria media); settings: AAH 320 g/ha
Method in brief: as §3

| SMILES | P: chickweed, herbicidal effect rating |
| --- | --- |
| C=Cc1ccc(-c2sc3ccccc3c2-c2c(O)c(C)nn(C)c2=O)cc1 [1-127] | 0 (Herbicidal rate of 5% or less (almost no effect)) |

tested on: chickweed; assay: Test Example 5: herbicidal effect by foliage application, plastic box (Table 20, symbol P); assay type: in vivo, common chickweed (Stellaria media); settings: foliage application, AAH 320 g/ha, three weeks after application
Method in brief: as §2

| SMILES | P: chickweed, herbicidal effect |
| --- | --- |
| C=Cc1ccc(-c2sc3ccccc3c2-c2c(O)c(C)nn(C)c2=O)cc1 [1-127] | 5 (Herbicidal rate of 90% or more (almost completely withered)) |

tested on: velvetleaf; assay: Test Example 5: herbicidal effect by foliage application, plastic box (Table 20, symbol M); assay type: in vivo, velvetleaf (Abutilon theophrasti); settings: foliage application, AAH 320 g/ha, three weeks after application
Method in brief: as §2

| SMILES | M: velvetleaf, herbicidal effect |
| --- | --- |
| C=Cc1ccc(-c2sc3ccccc3c2-c2c(O)c(C)nn(C)c2=O)cc1 [1-127] | 5 (Herbicidal rate of 90% or more (almost completely withered)) |

tested on: southern crabgrass; assay: Test Example 5: herbicidal effect by foliage application, plastic box (Table 20, symbol F); assay type: in vivo, southern crabgrass (Digitaria ciliaris); settings: foliage application, AAH 320 g/ha, three weeks after application
Method in brief: as §2

| SMILES | F: southern crabgrass, herbicidal effect |
| --- | --- |
| C=Cc1ccc(-c2sc3ccccc3c2-c2c(O)c(C)nn(C)c2=O)cc1 [1-127] | 2 (Herbicidal rate of 20% or more and less than 40%) |

tested on: barnyard grass; assay: Test Example 5: herbicidal effect by foliage application, plastic box (Table 20, symbol H); assay type: in vivo, barnyard grass (Echinochloa crus-galli); settings: foliage application, AAH 320 g/ha, three weeks after application
Method in brief: as §2

| SMILES | H: barnyard grass, herbicidal effect |
| --- | --- |
| C=Cc1ccc(-c2sc3ccccc3c2-c2c(O)c(C)nn(C)c2=O)cc1 [1-127] | 4 (Herbicidal rate of 70% or more and less than 90%) |

tested on: Chinese sprangletop; assay: Test Example 3: herbicidal effect by foliage application, Wagner pot (Table 18, symbol D); assay type: in vivo, chinese sprangletop (Leptochloa chinensis); settings: 320 g/ha
Method in brief: as §1

| SMILES | herbicidal effect on D (Chinese sprangletop), rating 0-5 |
| --- | --- |
| C=Cc1ccc(-c2sc3ccccc3c2-c2c(O)c(C)nn(C)c2=O)cc1 [1-127] | 3 (Herbicidal rate of 40% or more and less than 70%) |

tested on: Italian ryegrass; assay: Test Example 4: herbicidal effect by soil treatment (Table 19, symbol K); assay type: in vivo, Italian ryegrass (Lolium multiflorum); settings: AAH 320 g/ha
Method in brief: as §3

| SMILES | K: Italian ryegrass, herbicidal effect rating |
| --- | --- |
| C=Cc1ccc(-c2sc3ccccc3c2-c2c(O)c(C)nn(C)c2=O)cc1 [1-127] | 5 (Herbicidal rate of 90% or more (almost completely withered)) |

tested on: velvetleaf; assay: Test Example 4: herbicidal effect by soil treatment (Table 19, symbol M); assay type: in vivo, velvetleaf (Abutilon theophrasti); settings: AAH 320 g/ha
Method in brief: as §3

| SMILES | M: velvetleaf, herbicidal effect rating |
| --- | --- |
| C=Cc1ccc(-c2sc3ccccc3c2-c2c(O)c(C)nn(C)c2=O)cc1 [1-127] | 2 (Herbicidal rate of 20% or more and less than 40%) |

tested on: wild oat; assay: Test Example 4: herbicidal effect by soil treatment (Table 19, symbol I); assay type: in vivo, wild oat (Avena fatua); settings: AAH 320 g/ha
Method in brief: as §3

| SMILES | I: wild oat, herbicidal effect rating |
| --- | --- |
| C=Cc1ccc(-c2sc3ccccc3c2-c2c(O)c(C)nn(C)c2=O)cc1 [1-127] | 0 (Herbicidal rate of 5% or less (almost no effect)) |

tested on: southern crabgrass; assay: Test Example 4: herbicidal effect by soil treatment (Table 19, symbol F); assay type: in vivo, southern crabgrass (Digitaria ciliaris); settings: AAH 320 g/ha
Method in brief: as §3

| SMILES | F: southern crabgrass, herbicidal effect rating |
| --- | --- |
| C=Cc1ccc(-c2sc3ccccc3c2-c2c(O)c(C)nn(C)c2=O)cc1 [1-127] | 0 (Herbicidal rate of 5% or less (almost no effect)) |

tested on: wild oat; assay: Test Example 5: herbicidal effect by foliage application, plastic box (Table 20, symbol I); assay type: in vivo, wild oat (Avena fatua); settings: foliage application, AAH 320 g/ha, three weeks after application
Method in brief: as §2

| SMILES | I: wild oat, herbicidal effect |
| --- | --- |
| C=Cc1ccc(-c2sc3ccccc3c2-c2c(O)c(C)nn(C)c2=O)cc1 [1-127] | 0 (Herbicidal rate of 5% or less (almost no effect)) |

tested on: persian speedwell; assay: Test Example 5: herbicidal effect by foliage application, plastic box (Table 20, symbol R); assay type: in vivo, Persian speedwell (Veronica persica); settings: foliage application, AAH 320 g/ha, three weeks after application
Method in brief: as §2

| SMILES | R: persian speedwell, herbicidal effect |
| --- | --- |
| C=Cc1ccc(-c2sc3ccccc3c2-c2c(O)c(C)nn(C)c2=O)cc1 [1-127] | 5 (Herbicidal rate of 90% or more (almost completely withered)) |

tested on: blackgrass; assay: Test Example 4: herbicidal effect by soil treatment (Table 19, symbol J); assay type: in vivo, blackgrass (Alopecurus myosuroides); settings: AAH 320 g/ha
Method in brief: as §3

| SMILES | J: blackgrass, herbicidal effect rating |
| --- | --- |
| C=Cc1ccc(-c2sc3ccccc3c2-c2c(O)c(C)nn(C)c2=O)cc1 [1-127] | 0 (Herbicidal rate of 5% or less (almost no effect)) |

tested on: redroot pigweed; assay: Test Example 5: herbicidal effect by foliage application, plastic box (Table 20, symbol N); assay type: in vivo, redroot pigweed (Amaranthus retroflexus); settings: foliage application, AAH 320 g/ha, three weeks after application
Method in brief: as §2

| SMILES | N: redroot pigweed, herbicidal effect |
| --- | --- |
| C=Cc1ccc(-c2sc3ccccc3c2-c2c(O)c(C)nn(C)c2=O)cc1 [1-127] | 5 (Herbicidal rate of 90% or more (almost completely withered)) |

tested on: lambsquarters; assay: Test Example 4: herbicidal effect by soil treatment (Table 19, symbol O); assay type: in vivo, lambsquarters (Chenopodium album); settings: AAH 320 g/ha
Method in brief: as §3

| SMILES | O: lambsquarters, herbicidal effect rating |
| --- | --- |
| C=Cc1ccc(-c2sc3ccccc3c2-c2c(O)c(C)nn(C)c2=O)cc1 [1-127] | 4 (Herbicidal rate of 70% or more and less than 90%) |

tested on: persian speedwell; assay: Test Example 4: herbicidal effect by soil treatment (Table 19, symbol R); assay type: in vivo, Persian speedwell (Veronica persica); settings: AAH 320 g/ha
Method in brief: as §3

| SMILES | R: persian speedwell, herbicidal effect rating |
| --- | --- |
| C=Cc1ccc(-c2sc3ccccc3c2-c2c(O)c(C)nn(C)c2=O)cc1 [1-127] | 4 (Herbicidal rate of 70% or more and less than 90%) |

tested on: Italian ryegrass; assay: Test Example 5: herbicidal effect by foliage application, plastic box (Table 20, symbol K); assay type: in vivo, Italian ryegrass (Lolium multiflorum); settings: foliage application, AAH 320 g/ha, three weeks after application
Method in brief: as §2

| SMILES | K: Italian ryegrass, herbicidal effect |
| --- | --- |
| C=Cc1ccc(-c2sc3ccccc3c2-c2c(O)c(C)nn(C)c2=O)cc1 [1-127] | 5 (Herbicidal rate of 90% or more (almost completely withered)) |

tested on: windgrass; assay: Test Example 5: herbicidal effect by foliage application, plastic box (Table 20, symbol L); assay type: in vivo, windgrass (Apera spica-venti); settings: foliage application, AAH 320 g/ha, three weeks after application
Method in brief: as §2

| SMILES | L: windgrass, herbicidal effect |
| --- | --- |
| C=Cc1ccc(-c2sc3ccccc3c2-c2c(O)c(C)nn(C)c2=O)cc1 [1-127] | 5 (Herbicidal rate of 90% or more (almost completely withered)) |
